Where a name gives a salt, the structure may show the parent alone.

Experiment [1] concerns pS6K1 (p-p70 S6 Kinase (Thr389)) in MCF-7 cells. The experiment in a line: AlphaLISA Ultra pS6K1 assay. The conditions noted are these: Homo sapiens, MCF7, 2 h, 2 hours compound incubation. It is filed as cell-based. The gist of the method: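 MCF-7 cells seeded 20–24 h, medium refreshed 2 h, then treated 2 h with compound (0.5% DMSO final). Lysates probed for Thr389-phosphorylated p70 S6K by AlphaLISA Ultra, 2 h acceptor then 2 h donor bead incubation, read on a multimode reader.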
In general terms: Bead proximity is the source of the signal in Alpha formats.

In experiment [2] the test system is pAKT (p-Akt 1/2/3 (Ser473)) in MCF-7 cells. The experiment in a line: AlphaLISA Ultra pAKT assay. The format is cell-based. The conditions noted are these: Homo sapiens, MCF7, 2 hours compound incubation. An outline of the steps:
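AlphaLISA read-out (2 h acceptor-bead, then 2 h donor-bead incubation) on thawed lysates of MCF-7 cells exposed to compounds for 2 h in 0.5% DMSO. Cells had been plated 20-24 h and given fresh medium 2 h before dosing.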

Broadly, the IC50 is the concentration needed to halve the response being measured. A higher IC50 goes with lower potency. In the case of `Cc1cc(C)c(C(=O)N2CCN(CC(F)(F)F)[C@H](CO)C2)cc1NC1CCN(c2ccccc2C#N)CC1` [I-98, (S)-2-(4-(5-(3-(Hydroxymethyl)-4-(2,2,2-trifluoroethyl)piperazine-1-carbonyl)-2,4-dimethylphenylamino)piperidin-1-yl)benzonitrile], the IC50 was 5000 to 10000 nM in experiment [1] and > 10000 nM in experiment [2].
For the compound `Cc1cc(C)c(C(=O)N2CCN(c3cc(F)ccn3)[C@@H](CO)C2)cc1NC1CCN(c2ccccc2C#N)CC1` [I-99, (R)-2-(4-(5-(4-(4-Fluoropyridin-2-yl)-3-(hydroxymethyl)piperazine-1-carbonyl)-2,4-dimethylphenylamino)piperidin-1-yl)benzonitrile], the half-maximal inhibitory concentration (IC50) in experiment [1] is 1000 to 3000 nM; in experiment [2] it was > 10000 nM.
For the compound `Cc1cccc(N2CCN(C(=O)c3cc(NC4CCN(c5ccccc5C#N)CC4)c(C)cc3C)C[C@@H]2CO)n1` [I-101, (R)-2-(4-(5-(3-(Hydroxymethyl)-4-(6-methylpyridin-2-yl)piperazine-1-carbonyl)-2,4-dimethylphenylamino)piperidin-1-yl)benzonitrile], the IC50 in experiment [1] was 1000 to 3000 nM; in experiment [2], > 10000 nM.
Regarding `Cc1cc(C)c(C(=O)N2CCN(c3ccc(F)cc3S(N)(=O)=O)CC2)nc1NC1CCN(c2ccccc2C#N)CC1` [I-103, 2-(4-(6-(1-(2-cyanophenyl)piperidin-4-ylamino)-3,5-dimethylpicolinoyl)piperazin-1-yl)-5-fluorobenzenesulfonamide], the IC50 was 1000 to 3000 nM in experiment [1] and > 10000 nM in experiment [2].
Consider `Cc1cc(C)c(C(=O)N2CCN(c3cc(F)c(F)cc3S(N)(=O)=O)CC2)cc1NC1CCN(c2ccccc2C#N)CC1` [I-104, 2-(4-(5-(1-(2-Cyanophenyl)piperidin-4-ylamino)-2,4-dimethylbenzoyl)piperazin-1-yl)-4,5-difluorobenzenesulfonamide], for which the IC50 is 10 to 1000 nM in experiment [1] and > 10000 nM in experiment [2].
For the compound `COc1cc(C)c(NC2CCN(c3ccccc3C#N)CC2)cc1C(=O)N1CCN(c2ccccc2S(N)(=O)=O)CC1` [I-105, 2-(4-(5-(1-(2-Cyanophenyl)piperidin-4-ylamino)-2-methoxy-4-methylbenzoyl)piperazin-1-yl)benzenesulfonamide], the IC50 is 1000 to 3000 nM in experiment [1] and > 10000 nM in experiment [2].
Turning to `Cc1cc(C)c(C(=O)N2CCN(c3ccccc3S(N)(=O)=O)CC2)cc1NC1CCN(c2ccccc2C)CC1` [I-108, 2-(4-(2,4-Dimethyl-5-(1-o-tolylpiperidin-4-ylamino)benzoyl)piperazin-1-yl)benzenesulfonamide], the IC50 is 1000 to 3000 nM in experiment [1] and > 10000 nM in experiment [2].
For the compound `N#Cc1ccccc1N1CCC(Nc2c(F)ccc(C(=O)N3CCN(c4ccccc4S(N)(=O)=O)CC3)c2F)CC1` [I-109, 2-(4-(3-(1-(2-cyanophenyl)piperidin-4-ylamino)-2,4-difluorobenzoyl)piperazin-1-yl)benzenesulfonamide], the figures for the concentration for half-maximal inhibition (IC50) in experiment [1] and in experiment [2] were 3000 to 5000 nM and > 10000 nM, respectively.
On to `Cc1cc(C)c(C(=O)N2CCN(c3ccccc3[S@](C)(=N)=O)CC2)nc1NC1CCN(c2ccccc2C#N)CC1` [I-110, (R)-2-(4-(3,5-Dimethyl-6-(4-(2-(S-methylsulfonimidoyl)phenyl)piperazine-1-carbonyl)pyridin-2-ylamino)piperidin-1-yl)benzonitrile], for which the results for the IC50 in experiment [1] and in experiment [2] were 10 to 1000 nM and > 10000 nM, respectively.
For the compound `Cc1cc(C)c(C(=O)N2CCN(c3ccccc3C)[C@@H](CO)C2)cc1NC1CCN(c2ccccc2C#N)CC1` [I-112, (R)-2-(4-(5-(3-(Hydroxymethyl)-4-o-tolylpiperazine-1-carbonyl)-2,4-dimethylphenylamino)piperidin-1-yl)benzonitrile], the IC50 in experiment [1] is 1000 to 3000 nM; in experiment [2], > 10000 nM.
The corresponding values for `Cc1cc(F)c(C(=O)N2CCN(c3ccccc3S(N)(=O)=O)CC2)cc1NC1CCN(c2ccccc2C#N)CC1` [I-113, 2-(4-(5-(1-(2-Cyanophenyl)piperidin-4-ylamino)-2-fluoro-4-methylbenzoyl)piperazin-1-yl)benzenesulfonamide] are 3000 to 5000 nM and > 10000 nM.
Turning to `Cc1cc(C)c(C(=O)N2CCN(C(C)C)[C@@H](CO)C2)cc1NC1CCN(c2ccccc2C#N)CC1` [I-114, (R)-2-(4-(5-(3-(Hydroxymethyl)-4-isopropylpiperazine-1-carbonyl)-2,4-dimethylphenylamino)piperidin-1-yl)benzonitrile], the IC50 in experiment [1] and in experiment [2] was > 10000 nM in each case.
In the case of `Cc1cc(C)c(C(=O)N2CCN(c3ncccc3F)[C@@H](CO)C2)cc1NC1CCN(c2ccccc2C#N)CC1` [I-115, (R)-2-(4-(5-(4-(3-Fluoropyridin-2-yl)-3-(hydroxymethyl)piperazine-1-carbonyl)-2,4-dimethylphenylamino)piperidin-1-yl)benzonitrile], the IC50 in experiment [1] was 1000 to 3000 nM; in experiment [2], > 10000 nM.
`Cc1cc(C)c(C(=O)N2CCN(c3ccc(F)cn3)[C@@H](CO)C2)cc1NC1CCN(c2ccccc2C#N)CC1` [I-116, (R)-2-(4-(5-(4-(5-Fluoropyridin-2-yl)-3-(hydroxymethyl)piperazine-1-carbonyl)-2,4-dimethylphenylamino)piperidin-1-yl)benzonitrile]: the IC50 was 1000 to 3000 nM in experiment [1] and > 10000 nM in experiment [2].
For the compound `Cc1cc(C)c(C(=O)N2CCN(c3ccc(F)cn3)[C@H](CO)C2)cc1NC1CCN(c2ccccc2C#N)CC1` [I-117, (S)-2-(4-(5-(4-(5-fluoropyridin-2-yl)-3-(hydroxymethyl)piperazine-1-carbonyl)-2,4-dimethylphenylamino)piperidin-1-yl)benzonitrile], the IC50 in experiment [1] was 10 to 1000 nM; in experiment [2], > 10000 nM.
Turning to `Cc1cc(C)c(C(=O)N2CCN(c3ccccn3)C(C)(C)C2)cc1NC1CCN(c2ccccc2C#N)CC1` [I-118], the IC50 is 1000 to 3000 nM in experiment [1] and > 10000 nM in experiment [2].
Take `Cc1cc(C)c(C(=O)N2CCN(c3ccccc3)C(C)(C)C2)cc1NC1CCN(c2ccccc2C#N)CC1` [I-119, 2-(4-(5-(3,3-Dimethyl-4-phenylpiperazine-1-carbonyl)-2,4-dimethylphenylamino)piperidin-1-yl)benzonitrile]: the IC50 in experiment [1] and in experiment [2] was > 10000 nM throughout.
With `Cc1ccc(C(=O)N2CCN(c3ncccc3S(N)(=O)=O)CC2)c(C)c1NC1CCN(c2ccccc2C#N)CC1` [I-120, 2-(4-(3-(1-(2-cyanophenyl)piperidin-4-ylamino)-2,4-dimethylbenzoyl)piperazin-1-yl)pyridine-3-sulfonamide], the IC50 in experiment [1] was 10 to 1000 nM; in experiment [2] it was > 10000 nM.
Take `Cc1cc(C)c(C(=O)N2CCN(c3ncccc3S(N)(=O)=O)[C@H](C)C2)cc1NC1CCN(c2ccccc2C#N)CC1` [I-122, (R)-2-(4-(5-(1-(2-Cyanophenyl)piperidin-4-ylamino)-2,4-dimethylbenzoyl)-2-methylpiperazin-1-yl)pyridine-3-sulfonamide]: the IC50 in experiment [1] was 10 to 1000 nM; in experiment [2], > 10000 nM.
`CNC(=O)c1cccnc1N1CCN(C(=O)c2cc(NC3CCN(c4ccccc4C#N)CC3)c(C)cc2C)C[C@H]1C` [I-123, (R)-2-(4-(5-(1-(2-Cyanophenyl)piperidin-4-ylamino)-2,4-dimethylbenzoyl)-2-methylpiperazin-1-yl)-N-methylnicotinamide]: the results for the IC50 in experiment [1] and in experiment [2] were 1000 to 3000 nM and > 10000 nM, respectively.
For the compound `Cc1ccc(C(=O)N2CCN(c3ccccc3S(N)(=O)=O)CC2)c(C)c1NC1CCN(c2ccccc2C#N)CC1` [I-124, 2-[4-[3-[[1-(2-cyanophenyl)-4-piperidyl]amino]-2,4-dimethyl-benzoyl]piperazin-1-yl]benzenesulfonamide], the figures for the IC50 in experiment [1] and in experiment [2] were 10 to 1000 nM and > 10000 nM, respectively.
`N#Cc1ccccc1N1CCC(Nc2cc(C(=O)N3CCN(c4ccccc4S(N)(=O)=O)CC3)c(Cl)cc2Cl)CC1` [I-125, 2-(4-(2,4-dichloro-5-(1-(2-cyanophenyl)piperidin-4-ylamino)benzoyl)piperazin-1-yl)benzenesulfonamide]: the IC50 in experiment [1] and in experiment [2] was > 10000 nM each time.
`COc1cc(C)c(C(=O)N2CCN(c3ccccc3S(N)(=O)=O)CC2)cc1NC1CCN(c2ccccc2C#N)CC1` [I-127, 2-(4-(5-(1-(2-Cyanophenyl)piperidin-4-ylamino)-4-methoxy-2-methylbenzoyl)piperazin-1-yl)benzenesulfonamide]: the IC50 in experiment [1] is 3000 to 5000 nM; in experiment [2], > 10000 nM.
For `Cc1cccc(N2CCC(Nc3cc(C(=O)N4CCN(c5ccccc5S(N)(=O)=O)CC4)c(C)cc3C)CC2)c1` [I-129, 2-(4-(2,4-Dimethyl-5-(1-m-tolylpiperidin-4-ylamino)benzoyl)piperazin-1-yl)benzenesulfonamide], the values for the IC50 in experiment [1] and in experiment [2] were 1000 to 3000 nM and > 10000 nM, respectively.
Turning to `Cc1cc(C)c(C(=O)N2CCN(c3ccccc3S(N)(=O)=O)CC2)cc1NC1CCN(c2ccccc2C#N)C1` (stereo not drawn) [I-131, 2-(4-(5-(1-(2-cyanophenyl)pyrrolidin-3-ylamino)-2,4-dimethylbenzoyl)piperazin-1-yl)benzenesulfonamide], the 50% inhibitory concentration (IC50) in experiment [1] and in experiment [2] was > 10000 nM each time.
With `Cc1cc(C)c(C(=O)N2CCN(c3ccccc3S(N)(=O)=O)CC2)cc1NC1C2CN(c3ccccc3C#N)CC21` (stereo not drawn) [I-132, 2-(4-(5-(3-(2-Cyanophenyl)-3-azabicyclo[3.1.0]hexan-6-ylamino)-2,4-dimethylbenzoyl)piperazin-1-yl)benzenesulfonamide], the IC50 in experiment [1] was 1000 to 3000 nM; in experiment [2] it was > 10000 nM.
For `Cc1cc(C)c(C(=O)N2CCN(c3ccccc3)C(CN)C2)c(C)c1NC1CCN(c2ccccc2C#N)CC1` (stereo not drawn) [I-135, 2-[4-({3-[3-(Aminomethyl)-4-phenylpiperazine-1-carbonyl]-2,4,6-trimethylphenyl}amino)piperidin-1-yl]benzonitrile; bis(formic acid) salt], the IC50 in experiment [1] is 10 to 1000 nM; in experiment [2], > 10000 nM.
